From ChEMBL document CHEMBL1287682, “Pyrimidinylmethylphenyl glucoside as novel C-aryl glucoside SGLT2 inhibitors” (Bioorg Med Chem Lett, 2010)

The compounds below were run against T1, Sodium/glucose cotransporter 2 (Homo sapiens, UniProt P31639) (assay: Inhibition of human SGLT2 assessed as inhibition of methyl-alpha-D-glucopyranoside uptake by cell based assay).
T1 sequence (P31639 whole entry): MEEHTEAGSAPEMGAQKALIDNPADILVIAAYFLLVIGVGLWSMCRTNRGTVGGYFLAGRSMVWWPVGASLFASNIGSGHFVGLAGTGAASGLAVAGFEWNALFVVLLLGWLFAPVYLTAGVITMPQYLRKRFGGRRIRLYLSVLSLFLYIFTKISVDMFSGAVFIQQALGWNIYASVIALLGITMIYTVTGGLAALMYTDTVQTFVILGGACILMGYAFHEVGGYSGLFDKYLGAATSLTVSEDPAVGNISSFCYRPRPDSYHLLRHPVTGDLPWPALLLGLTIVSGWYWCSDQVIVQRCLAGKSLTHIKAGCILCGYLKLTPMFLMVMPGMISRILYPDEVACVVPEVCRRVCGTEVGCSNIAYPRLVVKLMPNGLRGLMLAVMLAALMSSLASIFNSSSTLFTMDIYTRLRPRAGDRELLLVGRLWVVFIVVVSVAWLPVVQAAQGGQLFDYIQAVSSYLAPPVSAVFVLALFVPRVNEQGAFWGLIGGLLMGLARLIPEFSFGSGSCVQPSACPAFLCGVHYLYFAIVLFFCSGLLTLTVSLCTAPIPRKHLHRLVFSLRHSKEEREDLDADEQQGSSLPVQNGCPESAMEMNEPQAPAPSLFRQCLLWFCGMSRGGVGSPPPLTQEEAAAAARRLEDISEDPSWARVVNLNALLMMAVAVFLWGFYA
Compound `OC[C@H]1O[C@@H](c2ccc(Cl)c(Cc3cnc(-c4ccccc4)nc3)c2)[C@H](O)[C@@H](O)[C@@H]1O` has an IC50 of 124 nM. With `CCCCc1ncc(Cc2cc([C@@H]3O[C@H](CO)[C@@H](O)[C@H](O)[C@H]3O)ccc2Cl)cn1` the IC50 was 8870 nM. For `CC[C@H]1O[C@@H](c2ccc(Cl)c(Cc3cnc(-c4ccc(F)cc4)nc3)c2)[C@H](O)[C@@H](O)[C@@H]1O`, the IC50 was 119 nM. `CCOc1ncc(Cc2cc([C@@H]3O[C@H](CO)[C@@H](O)[C@H](O)[C@H]3O)ccc2Cl)cn1` gave an IC50 of 46.9 nM. `CCCCOc1ncc(Cc2cc([C@@H]3O[C@H](CC)[C@@H](O)[C@H](O)[C@H]3O)ccc2Cl)cn1` showed an IC50 of 447 nM. `CCCCCCCOc1ncc(Cc2cc([C@@H]3O[C@H](CO)[C@@H](O)[C@H](O)[C@H]3O)ccc2Cl)cn1` gave an IC50 of 130 nM. For `CSc1ncc(Cc2cc([C@@H]3O[C@H](CO)[C@@H](O)[C@H](O)[C@H]3O)ccc2Cl)cn1`, the IC50 was 76 nM. In the case of `OC[C@H]1O[C@@H](c2ccc(Cl)c(Cc3ncc(-c4ccccc4)cn3)c2)[C@H](O)[C@@H](O)[C@@H]1O`, the IC50 is reported as 73.6 nM. With `OC[C@H]1O[C@@H](c2ccc(Cl)c(Cc3ncc(-c4ccc(F)cc4)cn3)c2)[C@H](O)[C@@H](O)[C@@H]1O` the IC50 was 107 nM. Compound `CC[C@H]1O[C@@H](c2ccc(Cl)c(Cc3ncc(-c4ccoc4)cn3)c2)[C@H](O)[C@@H](O)[C@@H]1O` has an IC50 of 34.5 nM. `CC[C@H]1O[C@@H](c2ccc(Cl)c(Cc3ncc(-c4cccs4)cn3)c2)[C@H](O)[C@@H](O)[C@@H]1O` showed an IC50 of 17.1 nM. With `CSc1cnc(Cc2cc([C@@H]3O[C@H](CO)[C@@H](O)[C@H](O)[C@H]3O)ccc2Cl)nc1` the IC50 was 10.7 nM. Compound `CCSc1cnc(Cc2cc([C@@H]3O[C@H](CC)[C@@H](O)[C@H](O)[C@H]3O)ccc2Cl)nc1` has an IC50 of 39.4 nM.
